System: NIH-MDR1-G185 cells
Experiment: Fluorescent substrate (BODIPY-FL Taxol) accumulation assay
Format: cell-based
Conditions: BODIPY-FL taxol 500 nM, MDR modulator 10 micromolar, 40 min at 37° C.; fluorescence in NIH-MDR1-G185 cells in presence / absence of modulator
Experimental: Fluorescent Substrate Accumulation Assay
NIH-MDR1-GI 85 cells (obtained from M. Gottesman, NI1H) were harvested and resuspended in RPMI-1640 containing L-glutamine, 10% Cosmic Calf Serum and penicillin-streptomycin. Cell suspension aliquots of 175 microliters (1×10^5 cells) were added to individual wells of a 96 well microtiter plate and preincubated for 15 min at 37° C. with 20 microliters MDR modulator diluted in cell culture media to give a final concentration of 10 micromolar. Control wells received no modulating agent. BODIPY-FL Taxol (Molecular Probes, Eugene, Oreg.) was added to each well in 10 microliter aliquots to give a final concentration of 500 nM and cells were incubated for 40 min at 37° C. Cells were centrifuged at 100× g for 5 min at 4° C. and the cell pellet washed with 200 microliters cold PBS to remove fluorescent medium from wells. Cells were centrifuged once more, media removed, and cells resuspended in 200 microliters cold PBS. Fluorescence accumulation was measured in a fluorescence plate reader fitted with an excitation filter of 485 nm and an emission filter of 538 nm. BODIPY-FL taxol accumulation in the cells was calculated as follows:
Accumulation Index=(fluorescence in NIH-MDR1-G185 cells in the presence of modulator)/(fluorescence in NIH-MDR1-G185 cells in absence of modulator) […]

Structure (SMILES): O=C(CCCNC[C@@H](O)COc1cccc2ncccc12)NC(CCCc1ccccc1)CCCc1ccccc1 [Example 25, N-{1-[2-(R)-Hydroxy-3-(quinolin-5-yloxy)-propyl]}-4-aminobutyric acid [4-phenyl-1-(3-phenyl-propyl)-butyl]-amide]
- Accumulation Index: 10

Reference: patent US20020119979A1, “Acyclic compounds and methods for treating multidrug resistance” (priority 2000, published 2002)
